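Protocol summary: plate cells (96-well), add compound at 5 concentrations, incubate 48 h, interpolate endpoints linearly. Here, GI50 denotes the concentration required for 50% inhibition of growth.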 Calls of active or inactive are those of the source. Cut-off read from the data, not from the text of the source: active = GI50 up to about 1.1 µM and inactive = higher.
Key:
Assay in all cases: inhibition of tumour cell growth, NCI panel, 48 h
SR = system: SR
CCRF-CEM = system: CCRF-CEM
HCT-116 = system: HCT-116
EKVX = system: EKVX
M14 = system: M14
PC-3 = system: PC-3
SN12C = system: SN12C
MOLT-4 = system: MOLT-4
UACC-257 = system: UACC-257
SF-539 = system: SF-539
SNB-19 = system: SNB-19
KM12 = system: KM12
NCI-H460 = system: NCI-H460
HL-60 = system: HL-60
HCT-15 = system: HCT-15
OVCAR-3 = system: OVCAR-3
RXF 393 = system: RXF 393
RPMI-8226 = system: RPMI-8226
SK-MEL-28 = system: SK-MEL-28
NCI-H23 = system: NCI-H23

SMILES: ClCCc1ccccc1CC1=NCCc2ccccc21
- GI50 (SR): > 100 µM (inactive)
- GI50 (CCRF-CEM): 39.9 µM (inactive)
- GI50 (HCT-116): 32.5 µM (inactive)
- GI50 (EKVX): 22.1 µM (inactive)
- GI50 (M14): 24.5 µM (inactive)
- GI50 (PC-3): 30.5 µM (inactive)
- GI50 (SN12C): 40.7 µM (inactive)
- GI50 (MOLT-4): 26.9 µM (inactive)
- GI50 (UACC-257): 34 µM (inactive)
- GI50 (SF-539): 38.8 µM (inactive)
- GI50 (SNB-19): 18.1 µM (inactive)
- GI50 (KM12): 29.3 µM (inactive)
- GI50 (NCI-H460): 25.8 µM (inactive)
- GI50 (HL-60): 31.3 µM (inactive)
- GI50 (HCT-15): 33 µM
- GI50 (OVCAR-3): 28.8 µM (inactive)
- GI50 (RXF 393): 21.7 µM (inactive)
- GI50 (RPMI-8226): 16.3 µM (inactive)
- GI50 (SK-MEL-28): 47.6 µM (inactive)
- GI50 (NCI-H23): 21.5 µM (inactive)

SMILES: Cc1ccc(S(=NS(=O)(=O)c2ccc(C)cc2)c2ccc(C)cc2)cc1
- GI50 (SR): 36.9 µM (inactive)
- GI50 (CCRF-CEM): 57 µM (inactive)
- GI50 (HCT-116): 56.9 µM (inactive)
- GI50 (EKVX): 86.5 µM (inactive)
- GI50 (M14): > 100 µM (inactive)
- GI50 (PC-3): 64 µM (inactive)
- GI50 (SN12C): > 100 µM (inactive)
- GI50 (MOLT-4): > 10 µM (inactive)
- GI50 (UACC-257): > 100 µM (inactive)
- GI50 (SF-539): > 100 µM (inactive)
- GI50 (SNB-19): > 100 µM (inactive)
- GI50 (KM12): 48.5 µM (inactive)
- GI50 (NCI-H460): > 100 µM (inactive)
- GI50 (HL-60): 34.7 µM (inactive)
- GI50 (HCT-15): 57 µM
- GI50 (OVCAR-3): 76 µM (inactive)
- GI50 (RXF 393): 81.8 µM (inactive)
- GI50 (RPMI-8226): > 100 µM (inactive)
- GI50 (SK-MEL-28): > 100 µM (inactive)
- GI50 (NCI-H23): 51.6 µM (inactive)

SMILES: N#CCC1(c2ccc(Cl)cc2)NC(=O)c2ccccc21 (stereo not given)
- GI50 (SR): > 100 µM (inactive)
- GI50 (CCRF-CEM): > 100 µM (inactive)
- GI50 (HCT-116): > 100 µM (inactive)
- GI50 (EKVX): > 100 µM (inactive)
- GI50 (M14): > 100 µM (inactive)
- GI50 (PC-3): > 100 µM (inactive)
- GI50 (SN12C): > 100 µM (inactive)
- GI50 (MOLT-4): > 100 µM (inactive)
- GI50 (UACC-257): > 100 µM (inactive)
- GI50 (SF-539): > 100 µM (inactive)
- GI50 (SNB-19): > 100 µM (inactive)
- GI50 (KM12): > 100 µM (inactive)
- GI50 (NCI-H460): > 100 µM (inactive)
- GI50 (HL-60): > 100 µM (inactive)
- GI50 (HCT-15): > 100 µM
- GI50 (OVCAR-3): > 100 µM (inactive)
- GI50 (RXF 393): > 100 µM (inactive)
- GI50 (RPMI-8226): > 100 µM (inactive)
- GI50 (SK-MEL-28): > 100 µM (inactive)
- GI50 (NCI-H23): > 100 µM (inactive)

SMILES: CC[C@@]1(O)C(=O)OCc2c1c(Cl)c1n(c2=O)Cc2cc3ccccc3nc2-1
- GI50 (SR): 0.27 µM (active)
- GI50 (CCRF-CEM): 0.372 µM (active)
- GI50 (HCT-116): 1.36 µM (inactive)
- GI50 (EKVX): 6.1 µM (inactive)
- GI50 (M14): 2 µM (inactive)
- GI50 (PC-3): 4.93 µM (inactive)
- GI50 (SN12C): 2.7 µM (inactive)
- GI50 (MOLT-4): 0.327 µM (active)
- GI50 (UACC-257): 2.39 µM (inactive)
- GI50 (SF-539): 2.08 µM (inactive)
- GI50 (SNB-19): 2.36 µM (inactive)
- GI50 (KM12): 6.38 µM (inactive)
- GI50 (NCI-H460): 0.383 µM (active)
- GI50 (HL-60): 2.19 µM (inactive)
- GI50 (HCT-15): 7.98 µM
- GI50 (OVCAR-3): 6.35 µM (inactive)
- GI50 (RXF 393): 2.52 µM (inactive)
- GI50 (RPMI-8226): 1.73 µM (inactive)
- GI50 (SK-MEL-28): 10.4 µM (inactive)
- GI50 (NCI-H23): 2.05 µM (inactive)

SMILES: COC(=O)[C@]1(c2cc3ccccc3[nH]2)CC2CNC1C1OC(C)(C)OC21 (stereo not given in full)
- GI50 (SR): 47.9 µM (inactive)
- GI50 (CCRF-CEM): > 100 µM (inactive)
- GI50 (HCT-116): > 100 µM (inactive)
- GI50 (EKVX): > 100 µM (inactive)
- GI50 (M14): > 100 µM (inactive)
- GI50 (PC-3): > 100 µM (inactive)
- GI50 (SN12C): > 100 µM (inactive)
- GI50 (MOLT-4): 66.4 µM (inactive)
- GI50 (UACC-257): > 100 µM (inactive)
- GI50 (SF-539): > 100 µM (inactive)
- GI50 (SNB-19): > 100 µM (inactive)
- GI50 (KM12): > 100 µM (inactive)
- GI50 (NCI-H460): > 100 µM (inactive)
- GI50 (HL-60): > 100 µM (inactive)
- GI50 (HCT-15): > 100 µM
- GI50 (OVCAR-3): > 100 µM (inactive)
- GI50 (RXF 393): 60.1 µM (inactive)
- GI50 (RPMI-8226): 61.4 µM (inactive)
- GI50 (SK-MEL-28): > 100 µM (inactive)
- GI50 (NCI-H23): > 100 µM (inactive)

SMILES: Cn1c2ccccc2c(=O)c2c(O)cc3c(c21)CC(C1(C)CO1)O3 (stereo not given)
- GI50 (SR): 0.111 µM (active)
- GI50 (CCRF-CEM): 0.056 µM (active)
- GI50 (HCT-116): 0.935 µM (active)
- GI50 (EKVX): 3.08 µM (inactive)
- GI50 (M14): 1.51 µM (inactive)
- GI50 (PC-3): 3.37 µM (inactive)
- GI50 (SN12C): 1.42 µM (inactive)
- GI50 (MOLT-4): 0.0665 µM (active)
- GI50 (UACC-257): 3.93 µM (inactive)
- GI50 (SF-539): 3.2 µM (inactive)
- GI50 (SNB-19): 10.4 µM (inactive)
- GI50 (KM12): 2.41 µM (inactive)
- GI50 (NCI-H460): 3.29 µM (inactive)
- GI50 (HL-60): 0.0495 µM (active)
- GI50 (HCT-15): 4.69 µM
- GI50 (OVCAR-3): 3.61 µM (inactive)
- GI50 (RXF 393): 1.17 µM (inactive)
- GI50 (RPMI-8226): 2.82 µM (inactive)
- GI50 (SK-MEL-28): 2.79 µM (inactive)
- GI50 (NCI-H23): 2.02 µM (inactive)

Reference: ChEMBL document CHEMBL1201862, “PubChem BioAssay data set” (2004)
